In experiment [1] the target is T1, rat liver STS (Rattus norvegicus, UniProt P15589).
T1 construct: samples of liver tissue were obtained and oestrone sulphatase activity assayed; from tissue; host or cells: rat liver
T1 sequence (P15589 20-577): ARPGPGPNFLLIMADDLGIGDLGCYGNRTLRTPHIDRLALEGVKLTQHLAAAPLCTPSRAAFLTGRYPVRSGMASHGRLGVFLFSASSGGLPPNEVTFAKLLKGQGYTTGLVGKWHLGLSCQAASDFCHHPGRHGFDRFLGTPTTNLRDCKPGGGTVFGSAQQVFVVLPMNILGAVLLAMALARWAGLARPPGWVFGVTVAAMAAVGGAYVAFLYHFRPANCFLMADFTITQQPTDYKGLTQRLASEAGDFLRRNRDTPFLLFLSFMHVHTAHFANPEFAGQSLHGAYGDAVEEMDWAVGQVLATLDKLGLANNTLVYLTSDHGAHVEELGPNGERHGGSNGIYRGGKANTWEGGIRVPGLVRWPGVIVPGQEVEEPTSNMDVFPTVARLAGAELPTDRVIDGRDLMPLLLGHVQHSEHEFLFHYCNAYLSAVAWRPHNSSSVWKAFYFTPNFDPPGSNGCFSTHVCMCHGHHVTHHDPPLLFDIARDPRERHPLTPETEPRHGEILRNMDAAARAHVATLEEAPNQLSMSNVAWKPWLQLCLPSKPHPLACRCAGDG
Nature of the experiment: Inhibition of oestrone sulphatase activity in vivo, rat liver (Protocol 3). As to conditions: rats; 10 mg/Kg/day for five days orally. As to the method: The compounds of the present invention may be studied using an animal model, in particular in ovariectomised rats. In this model compounds which are oestrogenic stimulate uterine growth.
The compound (10 mg/Kg/day for five days) was administered orally to rats with another group of animals receiving vehicle only (propylene glycol). A further group received the compound EMATE subcutaneously in an amount of 10 μg/day for five days. At the end of the study samples of liver tissue were obtained and oestrone sulphatase activity assayed using 3 H oestrone sulphate as the substrate as previously described (see PCT/GB95/02638).

The target of experiment [2] is T2, human placental steroid sulphatase (Homo sapiens, UniProt P08842).
T2 construct: Placental microsomes (100000 g fraction) were prepared from a positive-positive human placenta from a normal-term pregnancy; from tissue; host or cells: human placenta, microsomal fraction
T2 sequence (P08842 22-583): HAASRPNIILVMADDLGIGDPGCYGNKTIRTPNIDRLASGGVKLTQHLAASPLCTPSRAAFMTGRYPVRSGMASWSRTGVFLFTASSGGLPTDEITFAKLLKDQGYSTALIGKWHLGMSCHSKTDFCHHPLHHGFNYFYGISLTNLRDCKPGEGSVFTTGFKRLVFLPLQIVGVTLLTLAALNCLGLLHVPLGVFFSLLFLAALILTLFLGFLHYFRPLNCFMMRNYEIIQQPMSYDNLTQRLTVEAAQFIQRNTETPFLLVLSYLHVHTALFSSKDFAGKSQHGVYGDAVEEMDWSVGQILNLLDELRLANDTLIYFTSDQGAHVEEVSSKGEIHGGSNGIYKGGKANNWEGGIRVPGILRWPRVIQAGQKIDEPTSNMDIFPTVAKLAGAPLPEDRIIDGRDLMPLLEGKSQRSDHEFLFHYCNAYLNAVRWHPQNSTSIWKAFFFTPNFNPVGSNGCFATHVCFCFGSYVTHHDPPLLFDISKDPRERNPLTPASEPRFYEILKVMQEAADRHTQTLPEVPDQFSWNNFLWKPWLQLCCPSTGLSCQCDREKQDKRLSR
Nature of the experiment: Inhibition of oestrone sulphatase activity in human placental microsomes. In kind it is biochemical.

The subject of experiment [3] is ovariectomised rats (uterine growth). The experiment can be described thus: In vivo oestrogenicity, uterine growth in ovariectomised rats (Protocol 4). As to conditions: 10 mg/Kg/day for five days orally, uterine weight. Set-up: species or system rat. As to the method: The compounds of the present invention may be studied using an animal model, in particular in ovariectomised rats. In this model, compounds which are oestrogenic stimulate uterine growth.
The compound (10 mg/Kg day for five days) was administered orally to rats with another group of animals receiving vehicle only (propylene glycol). A further group received the estrogenic compound EMATE subcutaneously in an amount of […] for five days. At the end of the study uteri were obtained and weighed with the results being expressed as uterine weight/whole body weight×100.

Experiment [4] deals with rats (uterotrophic activity). As to conditions: cited from earlier work.
The target in experiment [5] is T3, E1-STS in intact MCF-7 cells (Homo sapiens, UniProt P08842).
T3 construct: endogenous in cells; host or cells: MCF-7 human breast cancer cells
T3 sequence (P08842 22-583): T2 sequence (P08842 22-583)
Set-up: dose or concentration left out as unconfirmed. As to conditions: cited from earlier work.

Experiment [6] deals with T4, E2DH Type II (HSD Type II) in MDA-MB231 breast cancer cells (Homo sapiens, UniProt P37059).
T4 construct: endogenous in cells; host or cells: MDA-MB-231 breast cancer cells
T4 sequence (P37059 1-387): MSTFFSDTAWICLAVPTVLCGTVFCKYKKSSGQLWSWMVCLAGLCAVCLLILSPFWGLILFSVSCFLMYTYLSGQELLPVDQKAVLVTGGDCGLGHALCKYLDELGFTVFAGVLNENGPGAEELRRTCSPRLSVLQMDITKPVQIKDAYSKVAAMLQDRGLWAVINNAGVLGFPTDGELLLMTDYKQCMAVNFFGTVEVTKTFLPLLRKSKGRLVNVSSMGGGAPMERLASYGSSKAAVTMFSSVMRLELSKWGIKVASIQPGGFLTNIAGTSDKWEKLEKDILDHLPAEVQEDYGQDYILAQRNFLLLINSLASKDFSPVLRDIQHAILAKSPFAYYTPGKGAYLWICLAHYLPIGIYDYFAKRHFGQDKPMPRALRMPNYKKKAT
Nature of the experiment: Conversion of oestradiol to oestrone in intact MDA-MB231 cell monolayers (Protocol 7). It is filed as cell-based. As to conditions: MDA-MB-231, measured at 10 μM, read-out: % Inhibition E2 → E1 ± SD (HSD Type II). As to the method: (§1) The ability of compounds to inhibit steroid dehydrogenase activity can be assessed using either T47D breast cancer cells in which E2HSD Type I activity is abundant or MDA-MB-231 cells for Type II inhibitor studies. In both cell lines formation of products is linear with respect to time and cell numbers. Details on a suitable Assay Protocol are presented in the Examples section.
(§2) Conversion of oestrone to oestradiol (E1→E2, E2DH Type I) and oestradiol to oestrone (E2→E1, E2DH Type II) was measured in intact cell monolayers of T47D and MDA-MB231 breast cancer cells respectively. Cells were cultured in flasks until they were 80–90% confluent. ^3 H-E1 or ^3H-E2 (6 pmol, ˜90 Ci/mmol) were added to each flask in the absence (control) or presence of various test compounds (10 μM) in 2.5 ml of medium. Substrate was also added to flasks without cells and incubated in parallel (blanks).
(§3) After incubation with T47D cells for 30 min or MDA cells for 3 h at 37° C., 2 ml of the medium was added to test tubes containing ^14C-E2 or ^14C-E1 (˜5000 cpm) and 50 μg E2 or E1 respectively. Steroids were extracted from the aqueous medium with diethyl ether (4 ml). The ether phase was decanted into separate tubes after freezing the aqueous phase in solid carbon dioxide-methanol mixture. The ether was evaporated to dryness under a stream of air at 40° C. The residue was dissolved in a small volume of diethyl ether and applied to TLC plates containing a fluorescent indicator. E1 and E2 were separated by TLC using DCM-Ethyl acetate (4:1 v/v). The position of the product from each incubation flask was marked on the TLC plate after visualisation under UV light. The marked regions were cut out and placed in scintillation vials containing methanol (0.5 ml) to elute the product. The amount of ^3 H-product formed and ^14C-E1 or ^14C-E2 recovered were calculated after scintillation spectrometry. The amount of product formed was corrected for procedural losses and for the number of cells in each flask.

Experiment [7] addresses T5, E2DH Type I (HSD Type I) in T47D breast cancer cells (Homo sapiens, UniProt P14061).
T5 construct: T47D breast cancer cells in which E2HSD Type I activity is abundant; endogenous in cells; host or cells: T47D breast cancer cells
T5 sequence (P14061 2-328 limits assumed): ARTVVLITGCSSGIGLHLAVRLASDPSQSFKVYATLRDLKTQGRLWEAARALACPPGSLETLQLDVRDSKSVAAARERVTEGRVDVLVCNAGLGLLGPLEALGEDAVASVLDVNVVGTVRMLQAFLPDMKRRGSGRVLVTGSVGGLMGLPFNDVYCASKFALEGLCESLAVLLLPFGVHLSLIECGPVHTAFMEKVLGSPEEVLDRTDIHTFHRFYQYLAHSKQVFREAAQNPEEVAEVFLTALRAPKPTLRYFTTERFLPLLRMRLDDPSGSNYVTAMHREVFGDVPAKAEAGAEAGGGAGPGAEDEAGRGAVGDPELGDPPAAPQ
The experiment can be described thus: Conversion of oestrone to oestradiol in intact T47D cell monolayers (Protocol 7). In kind it is cell-based. As to conditions: T47D, measured at 10 μM, read-out: % Inhibition E1 → E2 ± SD (HSD Type I). As to the method:
as §1, §2, §3

In experiment [8] the target is T6, STS (Homo sapiens, UniProt P08842).
T6 construct: can be assessed using either intact MCF-7 breast cancer cells or placental microsomes
T6 sequence (P08842 22-583): T2 sequence (P08842 22-583)
The experiment can be described thus: biochemical. As to conditions: for IC50: STS IC50 (nM), inhibition of E1S→E1, Table 1.

In experiment [9] the target is T7, steroid sulphatase (Homo sapiens, UniProt P08842).
T7 sequence (P08842 22-583): T2 sequence (P08842 22-583)
As to conditions: cited from earlier work.

The subject of experiment [10] is breast tumour cells. As to conditions: cited from earlier work.
The mark [11] stands for this setting: read-out: Mean % Inhibition ± SD.

Several values for one entry are separate records, joined by “and”; a condition that tells them apart may be missing. Equal values may be shown once.

As for `C[C@]12CCC3c4ccc(OS(N)(=O)=O)cc4CCC3C1CC(=O)N(Cc1cccnc1)C2=O` (some centres unmarked) [STX 237, 3-Sulfamoyl-N-(3-picolyl)-16,17-seco-estra-1,3,5(10)-triene-16,17-imide], the “inhibition of rat liver STS (FIG. 3)” value in [1] is reported as “inhibition of rat liver STS”. Besides, in experiment [2] (in vitro), the “inhibition of STS (in words)” value is “Good inhibition”. In addition, the “times more potent than EMATE” value in [2] (ratio of IC50 values versus EMATE) came out at 18 times. The “oestrogenicity (FIG. 2)” value in experiment [3] is “lack of oestrogenicity”.
What is called IC50 is the concentration needed to halve the response being measured. In the case of `C[C@]12CC[C@@H]3c4ccc(OS(N)(=O)=O)cc4CC[C@H]3[C@@H]1CCC2=O` [EMATE, estrone-3-O-sulfamate], the “oral uterotrophic activity, times higher than that of oestradiol” value in [4] is 100 times. The “inhibition of E1-STS activity” value in experiment [5] is given as “more than 99%”. Besides, in experiment [2], the IC50 came to 8 nM.
The term inhibition denotes the share of the control response that was lost under treatment. Consider `C[C@]12CCC3c4ccc(OS(N)(=O)=O)cc4CCC3C1CC(=O)N(Cc1ccccc1)C2=O` (some centres unmarked) [compound 236], for which the inhibition at 10 µM in experiment [6] came to 5.84 ± 11.8%; in experiment [7], 20.4 ± 6.25%. In experiment [8], this compound displayed an IC50 of 280 nM.
On the same counts, the results for `COc1cc2c(cc1OS(N)(=O)=O)CCC1C2CC[C@]2(C)C(=O)NC(=O)CC12` (some centres unmarked) [compound 326] are 15 ± 1.22%, 7.5 ± 12.4% and 309 nM.
The like results for `CCCN1C(=O)CC2C3CCc4cc(OS(N)(=O)=O)ccc4C3CC[C@]2(C)C1=O` (some centres unmarked) [compound 213] were, in that order, 14.3 ± 14.8%, 22.5 ± 1.62% and 41 nM.
Turning to `CCCN1C(=O)CC2C3CCc4cc(OS(N)(=O)=O)ccc4C3CC[C@]2(C)C1=O` (some centres unmarked) [STX213], in [3], the “oestrogenicity (FIG. 2)” value was “lack of oestrogenicity”.
Take `CCN1C(=O)CC2C3CCc4cc(OS(N)(=O)=O)ccc4C3CC[C@]2(C)C1=O` (some centres unmarked) [compound 281]: the inhibition at 10 µM in experiment [6] was determined as 20.4 ± 3.14%; in experiment [7] it was 24.7 ± 2.39%. Also, in experiment [8], the IC50 is 52 nM and 24 nM and 29 nM.
For the compound `NS(=O)(=O)Oc1ccc2c3c(c(=O)oc2c1)CCCCC3` [667 Coumate, reference compound], the “times more potent than EMATE in vitro” value in experiment [9] is reported as around 3 times. For the same compound, in experiment [8] (0.005 µM), the “667 Coumate value: % Inhibition” value was 5 nM = 63%Inhibition and 5 nM = 56%Inhibition. Besides, the inhibition at 0.005 µM in experiment [8] (read-out: 667 Coumate value: % Inhibition) is 63%.
For `CC(C)(C)c1ccc(CN2C(=O)CC3C4CCc5cc(OS(N)(=O)=O)ccc5C4CC[C@]3(C)C2=O)cc1` (some centres unmarked) [compound 285], the inhibition at 10 µM was determined as 3.56 ± 4.89% in experiment [6] and 22.5 ± 3.72% in [7]. This compound also showed an IC50 in experiment [8] of 23 nM.
Turning to `CCCN1C(=O)CC2C3CCc4cc(OS(N)(=O)=O)ccc4C3CC[C@]2(C)C1=O` (some centres unmarked) [STX 213, 3Sulfamoyl-N-propyl-16,17-seco-estra-1,3,5(10)-triene-16,17-imide], in experiment [1], the “inhibition of rat liver STS (FIG. 3)” value is “inhibition of rat liver STS”. In experiment [2], this compound gave an IC50 of 1 nM. In addition, in experiment [2] (setting [11]), the inhibition at 0.0001 µM worked out at 21.2 ± 0.8%, the inhibition at 0.001 µM was 49.3 ± 1.2%, the inhibition at 0.01 µM was 64.1 ± 4.6% and the inhibition at 0.1 µM came to 84.6 ± 1.3%. Also, in experiment [2] (setting [11]), the inhibition at 1 µM was determined as 96.8 ± 0.8% and the inhibition at 10 µM is 99.3 ± 1.1%.
With `C[C@]12CC[C@@H]3c4ccc(O)cc4CC[C@H]3[C@@H]1CC[C@@H]2O` [Oestradiol, oestradiol], in [10], the “proliferative effect, fold greater than oestrone” value is 10 fold.

(Values after patent publication US7098218B2, “Steroidal compounds for inhibiting steroid sulphatase” (priority 2001, dated 2006).)
